Data from patent US20260344665A1, “FUNGICIDAL COMPOUND” (priority 2022, published 2026).

Tests used:
[1] = test system: Puccinia recondita f. sp. tritici; assay: Leaf painting assay in wheat seedling, Puccinia recondita preventive; type: in vivo
Description: Wheat seedlings of the variety Riband (for Zymoseptoria tritici trials) or variety Arina (for Puccinia recondite trials) were grown in the glasshouse until 14d after seeding. At this time, such seedlings usually have a first leaf fully emerged (designated L1), a second leaf fully emerged (L2) and a third leaf (L3) that is partially emerged and in the process of development. Using a permanent pen, two dots were applied on the second leaf such as to generate three segments of roughly equal size: Segment A (at the base), segment B (middle part) and segment C (tip of the leaf). A stock solution of the compound of Formula (I) was produced in water and of benzovindiflupyr in DMSO at a concentration of 10,000 ppm. […] The diluted compound was applied to the middle segment of L2 using a conventional cotton stick; the cotton stick was soaked in the diluted compound and rubbed several times on the adaxial leaf surface between the two marks. One day later, the complete plant was inoculated with a fungal spore suspension using a paint brush. The spore suspension was applied until before run-off.
For infection with Puccinia recondita (preventive): The test plants were inoculated by spraying them with a spore suspension one day after application (spore suspension at 80,000 spores per ml in water supplemented with Tween20 at 0.1%). After an incubation period of 1 day at 20 °C and 95% rh, the inoculated test plants were kept at 20 °C and 60% rh in a greenhouse.
The three segments of the leaf were evaluated individually.

several fungal species = assay: Leaf disc or leaf segment tests, summary over several fungal species; type: in vivo; conditions: foliar; leaf disc and leaf segment tests; read-out: concentration from which fungal growth is reduced
Description: Leaf disks or leaf segments of various plant species were cut from plants grown in the greenhouse. The cut leaf discs or segments were placed in multiwell plates (24-well format) onto water agar. The leaf disks were sprayed with a test solution before (preventative) or after (curative) inoculation. Compounds to be tested were prepared as water solutions (max. 10 mg/ml) which were diluted to the appropriate concentration with 0.025% Tween20 just before spraying. The inoculated leaf discs or segments were incubated under defined conditions (temperature, relative humidity, light, etc.) according to the respective test system. A single evaluation of disease level was carried out 3-9 days days after inoculation, depending on the pathosystem. Percent disease control relative to the untreated check leaf discs or segments was then calculated.
Wheat leaf segments cv. Kanzler were placed on agar in multiwell plates (24-well format) and sprayed with the formulated test compound diluted in water. […] The inoculated leaf segments were incubated at 19 °C and 75% rh under a light regime of 12 h light/12 h darkness in a climate cabinet and the activity of a compound was assessed as percent disease control compared to untreated leaf when an appropriate level of disease damage appeared in untreated check leaf segments (7-9 days after application). […]

CC(=O)NC1C(OCC(OC2OC(CO)C(O)C(O)C2O)C2OC(OC3C(O)C(CO)OC(OC4(CO)OC(C(O)CO)C(O)C4OC4OC(CO)C(O)C(O)C4O)C3O)C(O)C(O)C2OC2OC(C(O)CO)C(O)C(O)C2OC2OCC(OC(N)=O)C(O)C2O)OC(CO)C(O)C1O (stereo not drawn) [compound of Formula (I)]
% reduction fungal growth ([1]; Experiment 1, 200.00 ppm, base segment, preventive): 0% | % reduction fungal growth ([1]; Experiment 1, 200.00 ppm, middle segment (treated), preventive): 48% | % reduction fungal growth ([1]; Experiment 1, 200.00 ppm, tip segment, preventive): 31% | % reduction fungal growth ([1]; Experiment 2, 200.00 ppm, base segment, preventive): 10% | % reduction fungal growth ([1]; Experiment 2, 200.00 ppm, middle segment (treated), preventive): 79% | % reduction fungal growth ([1]; Experiment 2, 200.00 ppm, tip segment, preventive): 38% | % reduction fungal growth ([1]; Experiment 3, 400.00 ppm, base segment, preventive): 16% | % reduction fungal growth ([1]; Experiment 3, 400.00 ppm, middle segment (treated), preventive): 98% | % reduction fungal growth ([1]; Experiment 3, 400.00 ppm, tip segment, preventive): 99% | % reduction fungal growth ([1]; Experiment 4, 500.00 ppm, base segment, preventive): 0% | % reduction fungal growth ([1]; Experiment 4, 500.00 ppm, middle segment (treated), preventive): 69% | % reduction fungal growth ([1]; Experiment 4, 500.00 ppm, tip segment, preventive): 82% | activity against growth of fungus ([1]; leaf painting, preventive): active against growth | control on treated and above treated area ([1]; middle segment treated): provided control on the treated area (middle segment) as well as the above treated area (tip) | minimal effective concentration (several fungal species): ≥ 22 µg/mL
